Source: patent US20060167269A1, “Compounds and methods for the inhibition of compounds cruzi” (priority 2001, published 2006)
Where “and” joins values, the source holds several entries; their conditions need not be identical. Identical values can stand only once. Like-named read-outs stand apart in the source and are kept apart here.

Tests used:
[1] = test system: T. cruzi (Tulahuen strain); assay: T. cruzi growth on monolayers of mouse 3T3 fibroblasts; assay type: cell-based, Trypanosoma cruzi
Description: (§1) Compounds which appear in Table 1, below were tested […] using the Tulahuen strain of T. cruzi. See Buckner, et al., Antimicrobial Agents and Chemotherapy, 40, 2592-2597 (1996). In this assay, trypomastigotes were grown on monolayers of mouse 3T3 fibroblasts as previously described by Van Voorhis, et al., J. Exp. Med. 169: 641-652 (1989). […] The assay also tested for inhibition of fibroblast growth (an indication of potential toxicity). In virtually all instances, the compounds were non-toxic in the assay. In Table 1, if a substituent is left blank, such a substituent is defined as a hydrogen. [drawing 5]

mouse 3T3 fibroblasts = assay: inhibition of fibroblast growth (indication of potential toxicity); assay type: cell-based; conditions: inhibition of 3T3 fibroblast growth
Description: as §1

Candida spp. = assay: Candida broth dilution assay; assay type: cell-based
Description: (§2) The compound JJ119 was tested for anti-Candida activity in a standard assay, as described below, against a number of strains of fungus. The assay compared inhibition (the effective dose causing 80% growth inhibition of the fungus) of several strains of Candida spp. using Fluconazole and compound JJ 119 (R^3 is CH3, all other variable substituents are H) of the present invention (see Table I, above).
(§3) The Candida assay followed the “Reference method for broth dilution antifungal susceptibility testing of yeasts; approved standard”, NCCLS, June, 1997. The procedure was modified to a 96 well format (as described in Modifications section 3.8). The methodology employed deviated from the approved method by reading results at 24 h rather than 48 h (since cultures of the ATCC strains were generally dense by 24 h).
(§4) In general, Candida were inoculated at a density of 2×10^3/ml in RPMI based medium in the presence of drugs at the following concentrations: 50 uM, 10 uM, 2 uM, 0.4 uM, and 0 uM. Cells were incubated at 34° C. for 24 hr and growth inhibition was scored visually for turbidity. All drugs were diluted in DMSO (except fluconazole which was diluted in water). Top concentration of DMSO in the cultures was 0.25%; DMSO alone at 0.5% was not inhibitory to C. albicans.

[2] = test system: T. cruzi trypomastigotes (Tulahuen); assay: anti-T. cruzi activity in infected mice; assay type: in vivo, mouse
Description: FIGS. 3A and B represent mouse data for compound JJ121. FIG. 3A represents Parasite levels and FIG. 3B represents Survival for treated and control mice. Mice were dosed orally at 50 mg/kg twice daily on days 1-10. They were infected with T. cruzi trypomastigotes (Tulahuen) 2×10^3 SQ at day 0. Parasitemia was quantified microscopically on a small drop of tail blood at 400×.
Despite this apparent stability, however, the results for anti-T. cruzi activity in infected mice is much better for JJ121 than for JJ37. […] All mice receiving JJ121 survive past 100 days, whereas the vehicle mice all die by day 20.

C. albicans = assay: Candida broth dilution assay, C. albicans; assay type: cell-based; conditions: 80% growth inhibition, 24 h
Description: as §2, §3, §4

C. glabrata = assay: Candida broth dilution assay, C. glabrata; assay type: cell-based; conditions: 80% growth inhibition, 24 h
Description: as §2, §3, §4

C. parapsilosis = assay: Candida broth dilution assay, C. parapsilosis; assay type: cell-based; conditions: 80% growth inhibition, 24 h
Description: as §2, §3, §4

C. krusei = assay: Candida broth dilution assay, C. krusei; assay type: cell-based; conditions: 80% growth inhibition, 24 h
Description: as §2, §3, §4

C. tropicalis = assay: Candida broth dilution assay, C. tropicalis; assay type: cell-based; conditions: 80% growth inhibition, 24 h
Description: as §2, §3, §4

[3] = incubation in murine serum (ester hydrolysis); assay type: in vitro ADME, mouse; conditions: 30 minutes of incubation
Description: The blood serum esterase levels of mice is very high, and it was thought that eliminating the ester group would increase the bioavailability of the aminobiphenyl over the ester.

[4] = drug concentration giving 50% inhibition of T. cruzi growth on 3T3 fibroblasts, read-out: EC50 T. cruzi
[5] = read-out: activity against T. cruzi

Row | Compound | EC50 [1, 4] [nM] | EC50 (mouse 3T3 fibroblasts) [nM] | further results
1 | COC(=O)c1ccc(NCc2cncn2Cc2cccc(Cl)c2)cc1-c1ccccc1 [JJ84, m-Cl-imid-BP-COOMe] | 20 | > 10000 | 
2 | COC(=O)c1ccc(NCc2cncn2Cc2ccc(C#N)cc2)cc1-c1ccccc1 [JJ20] |  | > 10000 | EC50 [1, 5]: 40 nM
3 | COC(=O)c1ccc(NCc2cncn2Cc2ccc(Br)cc2)cc1-c1ccccc1 [JJ57, p-Br-imid-BP-COOMe] | 20 | > 10000 | 
4 | COC(=O)c1ccc(NCc2cncn2Cc2cccc(C)c2)cc1-c1ccccc1 [JJ82, m-CH3-imid-BP-COOMe] | 20 | > 10000 | 
5 | Clc1ccc(Cn2cncc2CNc2cccc(-c3ccccc3)c2)cc1 [JJ120, p-Cl-imid-BP] | 80 |  | anti-Candida activity (Candida spp.): exhibited activity
6 | COC(=O)c1ccc(NCc2cncn2Cc2ccccc2C)cc1-c1ccccc1 [JJ101, o-CH3-imid-BP-COOMe] | 1000 |  | 
7 | COC(=O)c1ccc(NCc2cncn2Cc2cccc([N+](=O)[O-])c2)cc1-c1ccccc1 [JJ81, m-NO2-imid-BP-COOMe] | 30 | > 10000 | 
8 | COC(=O)c1ccc(NCc2cncn2Cc2ccc(N)cc2)cc1-c1ccccc1 [JJ58, p-NH2-imid-BP-COOMe] | 250 | > 10000 | 
9 | COC(=O)c1ccc(NCc2cncn2Cc2ccccc2N)cc1-c1ccccc1 [JJ105, o-NH2-imid-BP-COOMe] | 5 | > 10000 | 
10 | CC(C)OC(=O)c1ccc(NCc2cncn2Cc2ccc(-c3ccccc3)cc2)cc1-c1ccccc1 [JJ129] | 50 | > 10000 | 
11 | COC(=O)c1ccc(NCc2cncn2Cc2cccc(C(F)(F)F)c2)cc1-c1ccccc1 [JJ104] | 40 | > 10000 | 
12 | c1ccc(-c2ccc(Cn3cncc3CNc3cccc(-c4ccccc4)c3)cc2)cc1 [JJ121, p-Ph-imid-BP] | 10 |  | reduced activity compared with JJ37 [1]: 20 fold; IC50 ([1]; T. cruzi): 10 nM; survival ([2]; mice, oral 50 mg/kg twice daily on days 1-10, vehicle mice all die by day 20): > 100 days; parasite level in mouse blood ([2]; mice, oral 50 mg/kg twice daily, within 45 days): dramatic suppression of parasite from mouse blood
13 | COC(=O)c1ccc(NCc2cncn2Cc2ccccc2Cl)cc1-c1ccccc1 [JJ117] |  | > 10000 | 
14 | N#Cc1ccc(Cn2cncc2CNc2cccc(-c3ccccc3)c2)cc1 [JJ73] | 50 |  | 
15 | COC(=O)c1ccc(NCc2cncn2Cc2ccc([N+](=O)[O-])cc2)cc1-c1ccccc1 [JJ51, p-NO2-imid-BP-COOMe] | 100 | > 10000 | 
16 | COC(=O)c1ccc(NCc2cncn2Cc2ccccc2Br)cc1-c1ccccc1 [JJ102, o-Br-imid-BP-COOMe] | 100 |  | 

Row | Compound | EC50 [1, 4] [nM] | EC50 (mouse 3T3 fibroblasts) [nM] | further results
17 | COC(=O)c1ccc(NCc2cncn2Cc2ccccc2C#N)cc1-c1ccccc1 [JJ103, o-CN-imid-BP-COOMe] | 200 | > 10000 | 
18 | COC(=O)c1ccc(NCc2cncn2Cc2ccc(C)cc2)cc1-c1ccccc1 [JJ52, p-CH3-imid-BP-COOMe] | 5 | > 10000 | 
19 | COC(=O)c1ccc(NCc2cncn2Cc2cccc(C#N)c2)cc1-c1ccccc1 [JJ97, m-CN-imid-BP-COOMe] | 100 | > 10000 | 
20 | COC(=O)c1ccc(NCc2cncn2Cc2cccc(Br)c2)cc1-c1ccccc1 [JJ85, m-Br-imid-BP-COOMe] | 20 | > 10000 | 
21 | COC(=O)c1ccc(NCc2cncn2Cc2ccccc2)cc1-c1ccccc1 [JJ21] | 80 | > 10000 | 
22 | c1ccc(-c2ccc(Cn3cncc3CNc3ccc(-c4cc5ccccc5o4)c(-c4ccccc4)c3)cc2)cc1 [JJ138] | 100 | > 10000 | 
23 | O=C(OC1CCCCC1)c1ccc(NCc2cncn2Cc2ccc(-c3ccccc3)cc2)cc1-c1ccccc1 [JJ130] | 10 | > 10000 | 
24 | OC(Cn1cncn1)(Cn1cncn1)c1ccc(F)cc1F [Fluconazole] |  |  | ED80 (C. albicans; C. albicans strain 1): 6530 nM; ED80 (C. glabrata; C. glabrata strain 1): 104.5 μM and (32) μg/ml; ED80 (C. glabrata; C. glabrata strain 2): 6.528 μM and (2) μg/ml; ED80 (C. glabrata; C. glabrata strain 3): 208.9 μM and (64) μg/ml
25 | COC(=O)c1ccc(NCc2cncn2Cc2ccc(Cl)cc2)cc1-c1ccccc1 [JJ53, p-Cl-imid-BP-COOMe] | 5 | > 10000 | 
26 | O=[N+]([O-])c1ccc(Cn2cncc2CNc2cccc(-c3ccccc3)c2)cc1 [JJ118, p-NO2-imid-BP] | 100 |  | 
27 | Cc1ccc(Cn2cncc2CNc2cccc(-c3ccccc3)c2)cc1 [JJ119, p-CH3-imid-BP] | 100 |  | anti-Candida activity (Candida spp.): favorable anti-Candida activity; ED80 (C. parapsilosis; C. parapsilosis strain 1): 100000 nM and 50000 nM; ED80 (C. parapsilosis; C. parapsilosis strain 2): 25000 nM and 12500 nM; ED80 (C. albicans; C. albicans strain 1): 12500 nM; ED80 (C. albicans; C. albicans strain 2): 12500 nM; ED80 (C. albicans; C. albicans strain 3): 6250 nM; ED80 (C. krusei; C. krusei strain 1): 25000 nM; ED80 (C. krusei; C. krusei strain 2): 50000 nM; ED80 (C. krusei; C. krusei strain 3): 25000 nM; ED80 (C. glabrata; C. glabrata strain 1): 12.5 µM; ED80 (C. glabrata; C. glabrata strain 2): 6.25 µM; ED80 (C. glabrata; C. glabrata strain 3): 25 µM; ED80 (C. tropicalis; C. tropicalis strain 1): >100000 nM; ED80 (C. tropicalis; C. tropicalis strain 2 (first line so named, r25)): >100000 nM; ED80 (C. tropicalis; C. tropicalis strain 2 (second line so named, r27)): >100000 nM
28 | COC(=O)c1ccc(NCc2cncn2Cc2cccc(N)c2)cc1-c1ccccc1 [JJ83, m-NH2-imid-BP-COOMe] | 130 | > 10000 | 
29 | COC(=O)c1ccc(NCc2cncn2Cc2ccc(-c3ccccc3)cc2)cc1-c1ccccc1 [JJ37] |  | > 10000 | EC50 ([1]; read-out: activity against T. cruzi amastigotes): 0.5 nM; species found after incubation in murine serum [3]: the ester is the only species; activity in mouse models ([2]; infected mice): shows activity in mouse models, but much less than that of JJ121
30 | CCOC(=O)c1ccc(NCc2cncn2Cc2ccc(-c3ccccc3)cc2)cc1-c1ccccc1 [JJ128] | 10 | > 10000 | 
31 | N#Cc1ccc(Cn2cncc2CNc2ccc(C(=O)O)c(-c3ccccc3)c2)cc1 [JJ28] |  | > 10000 | EC50 [1, 5]: 1000 nM
32 | c1ccc(-c2ccc(Cn3cncc3CNc3ccc(-c4noc5ccccc45)c(-c4ccccc4)c3)cc2)cc1 [JJ141] | 10 | > 10000 | 
